The target of one test is T1, Protein skinhead-1 (Caenorhabditis elegans, UniProt P34707).
T1 sequence (P34707 whole entry): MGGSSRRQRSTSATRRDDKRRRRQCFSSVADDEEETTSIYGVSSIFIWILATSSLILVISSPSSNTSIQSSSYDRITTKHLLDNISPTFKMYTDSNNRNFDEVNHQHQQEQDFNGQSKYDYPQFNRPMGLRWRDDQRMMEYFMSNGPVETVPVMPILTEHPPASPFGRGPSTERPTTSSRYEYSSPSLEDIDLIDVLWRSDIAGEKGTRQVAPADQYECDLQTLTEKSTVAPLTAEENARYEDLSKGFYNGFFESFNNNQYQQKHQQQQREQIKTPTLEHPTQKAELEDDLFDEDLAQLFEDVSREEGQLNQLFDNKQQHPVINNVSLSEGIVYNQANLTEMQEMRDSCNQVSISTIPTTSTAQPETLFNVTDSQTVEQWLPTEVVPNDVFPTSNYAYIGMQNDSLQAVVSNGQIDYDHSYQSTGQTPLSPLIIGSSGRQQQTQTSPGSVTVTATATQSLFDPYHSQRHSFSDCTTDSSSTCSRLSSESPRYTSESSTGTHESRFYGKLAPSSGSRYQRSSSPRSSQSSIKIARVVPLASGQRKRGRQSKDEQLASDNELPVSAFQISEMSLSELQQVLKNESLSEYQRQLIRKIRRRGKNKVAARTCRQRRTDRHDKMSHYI
The format is functional.

Test [1] in a line: Luminescence Cell-Based Dose Retest to Confirm Inhibitors of Cancer Stem Cells. [Related pubchem assays (depositor defined):AID2717, AID2721]. The format is functional. The note with it: Homo sapiens.
Another test has as its system H4. In words: Luminescence Cell-Based Dose Response HTS to Identify Activators of 5'UTR Stem-Loop Driven Prion Protein mRNA Translation in H4 Neuroglioblastoma Cells. [Related pubchem assays: 1829 (Project Summary), 1814 (Primary HTS)]. It counts as functional. The note with it: Homo sapiens.
Test [2] addresses T2, Rac GTPase-activating protein 1 (Homo sapiens, UniProt Q9H0H5).
T2 sequence (Q9H0H5 whole entry): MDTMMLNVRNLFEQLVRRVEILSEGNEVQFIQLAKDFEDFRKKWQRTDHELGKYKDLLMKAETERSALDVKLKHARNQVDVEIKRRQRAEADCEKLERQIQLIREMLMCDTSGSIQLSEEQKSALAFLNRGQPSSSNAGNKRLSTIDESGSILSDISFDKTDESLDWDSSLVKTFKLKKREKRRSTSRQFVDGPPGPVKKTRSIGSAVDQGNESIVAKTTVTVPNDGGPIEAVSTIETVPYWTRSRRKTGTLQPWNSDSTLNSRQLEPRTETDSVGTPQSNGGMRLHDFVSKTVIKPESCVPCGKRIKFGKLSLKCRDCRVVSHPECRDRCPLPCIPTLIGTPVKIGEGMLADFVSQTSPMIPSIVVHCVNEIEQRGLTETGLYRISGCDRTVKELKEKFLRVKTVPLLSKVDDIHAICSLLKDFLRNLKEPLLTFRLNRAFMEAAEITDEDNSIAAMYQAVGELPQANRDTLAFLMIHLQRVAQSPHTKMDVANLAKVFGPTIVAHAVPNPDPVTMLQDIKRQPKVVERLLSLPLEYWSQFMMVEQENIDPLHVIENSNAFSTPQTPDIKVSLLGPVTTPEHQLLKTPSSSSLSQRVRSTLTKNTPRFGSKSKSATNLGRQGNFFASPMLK
Nature of the test: blockers of MgcRacGAP-driven Rac1 GTP hydrolysis – biochemical, ADP Hunter fluorescence, primary and confirmatory, confirmation (AID 624330). The format is functional.

In test [3] the target is FAD-linked sulfhydryl oxidase ALR (Homo sapiens, UniProt P55789). Nature of the test: ALR-catalysed DTT oxidation blockers – biochemical, H2O2 detection, luminescence, cherry-pick, dose response (AID 493248).
Test [4] can be described thus: Trypanosoma cruzi growth suppression in host cells – NIH3T3 host cells, beta-gal luminescence, confirmation (AID 2044).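 Also: intracellular parasites grown in NIH/3T3 mouse fibroblasts as host cells; luminescent beta-galactosidase reporter signal from transgenic T. cruzi replicating inside host cells; inhibitors lower the luminescence signal.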 It counts as functional, cell-based.
A short description of test [5]: NIH3T3 cell viability loss – ATP luminescence, mouse fibroblasts, counter-screen, dose response (AID 2010).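 Also: cells exposed to compound for about 90 hours before reading.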 The format is functional, cell-based.
The target of the next test is Paired box protein Pax-8 (Homo sapiens, UniProt Q06710). In words: PAX8 transcriptional activity inhibition in RMG-I – RMG-I cells, luciferase, cherry-pick, dose response (AID 687027).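 Also: luciferase reporter driven by Pax8 target thyroperoxidase promoter measured by SteadyGlo luminescence.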 It counts as functional, cell-based.
The test system of test [6] is Streptococcus sp. 'group A'. Nature of the test: Streptococcus pyogenes SK(-)GAS viability under kanamycin – luminescence, BacTiterGlo, confirmation, counter-screen for streptokinase expression inhibitor project, dose response (AID 1900). It counts as functional, organism-based.
The next test concerns the target T3, Streptokinase A (Streptococcus pyogenes serotype M1, UniProt P10520).
T3 sequence (P10520 whole entry): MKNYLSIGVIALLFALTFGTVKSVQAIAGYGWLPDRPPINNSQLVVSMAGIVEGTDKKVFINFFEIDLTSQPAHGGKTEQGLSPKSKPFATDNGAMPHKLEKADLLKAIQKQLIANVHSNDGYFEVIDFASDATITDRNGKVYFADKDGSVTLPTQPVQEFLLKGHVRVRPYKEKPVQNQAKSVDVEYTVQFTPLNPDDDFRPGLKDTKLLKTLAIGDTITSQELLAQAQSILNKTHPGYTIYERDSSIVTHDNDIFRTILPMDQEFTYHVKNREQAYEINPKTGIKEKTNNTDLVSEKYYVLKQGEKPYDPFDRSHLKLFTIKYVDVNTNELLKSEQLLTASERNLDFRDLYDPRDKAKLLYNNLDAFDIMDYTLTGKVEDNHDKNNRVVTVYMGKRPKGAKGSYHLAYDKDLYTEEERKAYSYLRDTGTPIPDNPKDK
In words: viability-normalized secreted streptokinase activity reduction – plasminogen activation absorbance, OD405, dose response (AID 1914).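 Also: secreted streptokinase activity via plasminogen activation per viability signal from cell pellet.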 The format is functional, Streptococcus pyogenes M1 GAS.

Another test concerns Streptococcus. In words: GAS UMAA2166 growth inhibition – luminescence, BacTiterGlo, counter-screen for streptokinase expression inhibitor project, dose response (AID 1915).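 Also: potency for reduction of bacterial viability or growth.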 The format is functional, organism-based.
Another test has as its system INS1. Nature of the test: INS-1E survival protection against cytokine death – cell-based, luminescence, retest, dose response (AID 449756).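 Also: cell death triggered by IL-1 beta plus TNF-alpha plus IFN-gamma mixture; protective hits raise ATP signal compared with cytokine alone wells.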 It counts as functional. The note with it: Rattus norvegicus.

Activity calls are given as the source filed them. Where only a bound is given, the exact number is not on record here.

Sequence of Paired box protein Pax-8 (Q06710 whole entry): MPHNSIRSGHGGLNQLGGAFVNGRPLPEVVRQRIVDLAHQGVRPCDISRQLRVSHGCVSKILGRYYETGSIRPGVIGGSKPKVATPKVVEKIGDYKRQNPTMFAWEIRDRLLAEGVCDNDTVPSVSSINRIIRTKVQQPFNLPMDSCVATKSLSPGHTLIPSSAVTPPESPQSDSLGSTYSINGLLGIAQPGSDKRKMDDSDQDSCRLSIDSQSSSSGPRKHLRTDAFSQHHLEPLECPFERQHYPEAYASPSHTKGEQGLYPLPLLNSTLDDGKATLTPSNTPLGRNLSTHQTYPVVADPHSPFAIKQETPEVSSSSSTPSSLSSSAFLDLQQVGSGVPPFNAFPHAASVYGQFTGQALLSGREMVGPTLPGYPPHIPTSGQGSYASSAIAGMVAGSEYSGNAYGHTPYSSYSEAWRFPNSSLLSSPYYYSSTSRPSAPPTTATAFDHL
Sequence of FAD-linked sulfhydryl oxidase ALR (P55789 whole entry): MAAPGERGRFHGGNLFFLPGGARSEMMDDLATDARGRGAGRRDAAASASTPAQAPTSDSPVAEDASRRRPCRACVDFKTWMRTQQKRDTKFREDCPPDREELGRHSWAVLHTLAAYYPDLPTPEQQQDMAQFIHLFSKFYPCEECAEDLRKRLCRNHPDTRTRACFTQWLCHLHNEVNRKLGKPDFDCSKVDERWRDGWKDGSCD

Take `COc1ccc(-c2nn(CC(=O)Nc3ccc(Cl)c(Cl)c3)c(=O)c3ccccc23)cc1`: the IC50 at Protein skinhead-1 was > 100 µM (inactive).

`CN(CC(=O)Nc1ccccc1Cl)C(=O)c1cccc(-n2cccc2)c1`: the AC50 in test [1] was > 195 µM (inactive).

For the compound `CCC(=O)NNc1ccc(Br)cc1`, in [1], the AC50 was 1.82 µM (active).

Consider `COC(=O)c1c(-c2ccccc2)noc1-c1ccccc1`, for which the IC50 at Protein skinhead-1 was 58.6 µM (inactive).

As to `COc1ccccc1C(=O)COC(=O)c1ccc(N(C)C)cc1`, in the test on H4, the EC50 is 1.79 µM (active).

For the compound `COc1ccc(CNc2ncc(-c3ccc(Br)cc3)n2C)cc1OC`, the IC50 in [2] was 55.6 µM (active).

In the case of `Cc1ccc(CSCC(=O)N2CCOCC2)cc1`, the IC50 on Protein skinhead-1 is > 100 µM (inactive).

As to `O=S(=O)(Nc1cc(O)nc(SCc2ccc(Cl)cc2)n1)c1ccccc1`, in [1], the AC50 was 4.07 µM (active).

As to `COc1cc(/C=C/c2cc(C(=O)O)c3ccccc3n2)cc(OC)c1O`, the AC50 in test [3] was 0.141 µM (active).

Consider `CCOC(=O)c1c(N)sc2c(OC)c(Br)ccc12`, for which the IC50 in [2] was 203 µM (active).

As for `CCN1CCN(CC(=O)Nc2nc3ccccc3s2)CC1`, in test [2], the IC50 was 55.7 µM (active).

As to `Cc1ccc(S(=O)(=O)N2CC=C(c3c(C)n(C)c4ccccc34)CC2)cc1`, on Protein skinhead-1, the IC50 was > 100 µM (inactive).

Take `CCOC(=O)c1c(-c2ccccc2)csc1NC(=O)c1nn(CC)cc1Br`: the EC50 is 2.06 µM (active) in test [4] and > 60 µM (not active) in [5]. Besides, the AC50 in [1] is 0.506 µM (active).

Take `CN1c2ccc(-c3ccc(C#N)cc3)cc2[C@@H]2[C@@H](CCN2C(=O)NC2CCCCC2)[C@@H]1CO`: the concentration at half-maximal activity (AC50) on Paired box protein Pax-8 was 19.9 µM (active).

Turning to `C[C@@H]1CN([C@H](C)CO)C(=O)c2cc(NC(=O)Nc3ccccc3)ccc2O[C@@H](C)CCCCO[C@H]1CN(C)Cc1ccc(Cl)c(Cl)c1`, on Paired box protein Pax-8, the AC50 was 7.42 µM (active).

Take `CCCCn1ccnc1C(=O)c1cccc(S(=O)(=O)N2c3ccccc3CC2C)c1` (centres undefined): at Protein skinhead-1, the IC50 is > 100 µM (inactive).

Turning to `O=C(NC1CCN(C(=S)Nc2ccc(Cl)cc2)CC1)c1ccco1`, the IC50 on Protein skinhead-1 is > 100 µM (inactive).

Take `Oc1ccc2c(ccc3[nH]cnc32)c1`: the IC50 in [2] was 43.9 µM (active).

On to `O=C(Nc1c(C(=O)O)[nH]c2ccccc12)NC1CCCCC1`, for which, in test [3], the half-maximal activity concentration (AC50) was 1.26 µM (active).

Consider `Cc1ccc(-n2nnnc2SCC(=O)c2cc(C)n(-c3cc(C)on3)c2C)c(C)c1`, for which the EC50 in test [6] was 25.6 µM (active); at Streptokinase A, 89.2 µM (active); in the test on Streptococcus it was > 150 µM (not active).

On to `COc1ccc(-c2sc3ccccc3c2C#CC2(O)CCCCC2)cc1`, for which the values for the EC50 (in [6]; on Streptokinase A; in the test with Streptococcus) were 3.52 µM (active), 6.81 µM (active) and 8.22 µM (active), respectively. Also, in test [1], the AC50 is 3.73 µM (active).

`Cc1cc(C)c(OCCOCCN2CCNCC2)c(C)c1`: on Protein skinhead-1, the IC50 was > 100 µM (inactive).

Regarding `CCc1ccc(/C=C/c2c([N+](=O)[O-])c(=O)n(C)c(=O)n2C)cc1`, the 50% effective concentration (EC50) in test [6] was 4.55 µM (active); at Streptokinase A it was > 150 µM (not active); with Streptococcus it was 18 µM (active).

For `Cc1cc(NS(=O)(=O)c2ccc(NC(=O)c3cc(-c4cccnc4)nc4ccc(Cl)cc34)cc2)no1`, the IC50 at Protein skinhead-1 is > 100 µM (inactive).

On to `CC(C)N1CCN(C(=O)c2cccc(Cl)c2)CC1`, for which, in test [2], the IC50 was 295 µM (active).

As to `CN1C(=O)N(c2ccccc2)C(Nc2nncs2)C1(C)C` (centres undefined), the IC50 at Protein skinhead-1 was > 100 µM (inactive).

Take `CCOC(=O)N1CCN(S(=O)(=O)c2ccc(C(=O)NNc3nc4ccc(Cl)cc4s3)cc2)CC1`: the AC50 in the test on INS1 is 3.39 µM (active).

For `O=C(CN1CCN(S(=O)(=O)c2ccccc2F)CC1)N1CCc2ccccc2C1`, the half-maximal inhibitory concentration (IC50) in test [2] was 47.1 µM (active).

Take `CCn1c(C)nc2cc(C(=O)NNC(=S)NC(=O)c3ccc(OC)cc3)ccc21`: the EC50 in test [6] was 9.55 µM (active); on Streptokinase A it was > 150 µM (not active); in the test on Streptococcus, 95.3 µM (active).

With `O=[N+]([O-])c1cc2c(cc1Br)-c1ccccc1C2`, the IC50 on Protein skinhead-1 was > 100 µM (inactive).

With `C/C(=N\NC(=S)Nc1ccc(F)cc1)c1ccc2c(c1)OCCO2`, the AC50 in test [1] was 1.02 µM (active).

For the compound `CCN(CC)c1ccc(S(=O)(=O)Nc2cc(Cl)ccc2Cl)cc1NC(=S)NC(=O)C1CCCC1`, the AC50 in [1] was 1.65 µM (active).

Take `C/C(N=Nc1ccccc1O)=N\Nc1nc2ccccc2s1`: the AC50 in test [1] was 3.71 µM (active).

For the compound `Cc1ccc(/C(C#N)=C\c2ccc(N3CCOCC3)o2)cc1`, the EC50 in test [4] is 4.37 µM (active); in test [5] it was > 60 µM (inconclusive). Further, the half-inhibitory concentration (IC50) in test [2] is 65.6 µM (active).

Consider `Brc1ccc(-[n+]2c(-c3ccccc3)cc(-c3ccccc3)cc2-c2ccccc2)cc1.[O-][Cl+3]([O-])([O-])[O-]`, for which the AC50 in the test on INS1 was 2.04 µM (active).

For `Nc1ccc(OCCc2ccccc2)cc1`, the IC50 in [2] was 31.2 µM (active).

Consider `C[C@@H]1CCCCO[C@@H](CN(C)C(=O)Cc2ccccc2)[C@@H](C)CN([C@@H](C)CO)C(=O)c2cc(NC(=O)Nc3ccc(C(F)(F)F)cc3)ccc2O1`, for which, at Paired box protein Pax-8, the AC50 is 4.87 µM (active).

Take `CCn1c2ccccc2c2cc(NS(=O)(=O)c3ccc(C)cc3)ccc21`: the AC50 in [1] is 2.87 µM (active).

`COCc1cc(C)nc(OCC(=O)N/N=C/c2ccc(O)cc2)c1C#N`: in test [2], the IC50 is 83.2 µM (active).

As to `O=C(c1cc(-c2cccs2)nc2ccccc12)N1CCN(c2ccccc2O)CC1`, the EC50 in test [6] is 21.8 µM (active); on Streptokinase A, 144 µM (active); in the test with Streptococcus, 54.8 µM (active).

Consider `Cc1cc(NC(=O)c2cnccn2)no1`, for which the EC50 (in test [6]; on Streptokinase A; in the test on Streptococcus) was > 150 µM (not active) each time.

`CCCS(=O)(=O)NCc1ccc2c(c1)cc(C)n2C`: on Protein skinhead-1, the IC50 was > 100 µM (inactive).

Take `COc1ccc(C2(c3ccc(OC)cc3)NC(=O)N(CC(=O)NC3CCS(=O)(=O)C3)C2=O)cc1` (centres undefined): the IC50 at Protein skinhead-1 is > 100 µM (inactive).

As for `O=C(c1c(Cl)cccc1Cl)N1CCN(c2cccc3[nH]ccc23)CC1`, the half-inhibitory concentration (IC50) in test [2] was 50.4 µM (active).

With `Cc1ccc(NC(=S)NC(=O)c2ccc(F)cc2)cc1S(=O)(=O)Nc1cccc(Cl)c1`, the EC50 in [6] was 1.48 µM (active); at Streptokinase A it was 11.5 µM (active); in the test on Streptococcus it was 54.2 µM (active).

Values taken from ChEMBL document CHEMBL1201862, “PubChem BioAssay data set” (2004).
